Reference: ChEMBL document CHEMBL4229552, “Optimization of 5-arylidene barbiturates as potent, selective, reversible LSD1 inhibitors for the treatment of acute promyelocytic leukemia” (Bioorg Med Chem, 2018)
Active and inactive are the calls of the source. The rule behind the calls is not given here.

Assays:
[1] = test system: NB-4; experiment: Induction of differentiation of human NB4 cells assessed as increase in CD11b positive cells at 0.5 to 5 uM by flow cytometric analysis; type: functional, cell-based
[2] = target: T1, Lysine-specific histone demethylase 1A (Homo sapiens, UniProt O60341)
[3] = target: T1, Lysine-specific histone demethylase 1A; experiment: Binding affinity to fluorescently labeled recombinant human LSD1 expressed in Escherichia coli by MST analysis
[4] = target: T1, Lysine-specific histone demethylase 1A; conditions: 4.1 uM
[5] = target: T2, Amine oxidase [flavin-containing] A (Homo sapiens, UniProt P21397); experiment: Inhibition of recombinant full length N-terminal FLAG-tagged human MAO-A expressed in baculovirus infected Sf9 insect cells using […] as substrate after 1 hr by spectrometric method
T2 sequence (P21397 whole entry): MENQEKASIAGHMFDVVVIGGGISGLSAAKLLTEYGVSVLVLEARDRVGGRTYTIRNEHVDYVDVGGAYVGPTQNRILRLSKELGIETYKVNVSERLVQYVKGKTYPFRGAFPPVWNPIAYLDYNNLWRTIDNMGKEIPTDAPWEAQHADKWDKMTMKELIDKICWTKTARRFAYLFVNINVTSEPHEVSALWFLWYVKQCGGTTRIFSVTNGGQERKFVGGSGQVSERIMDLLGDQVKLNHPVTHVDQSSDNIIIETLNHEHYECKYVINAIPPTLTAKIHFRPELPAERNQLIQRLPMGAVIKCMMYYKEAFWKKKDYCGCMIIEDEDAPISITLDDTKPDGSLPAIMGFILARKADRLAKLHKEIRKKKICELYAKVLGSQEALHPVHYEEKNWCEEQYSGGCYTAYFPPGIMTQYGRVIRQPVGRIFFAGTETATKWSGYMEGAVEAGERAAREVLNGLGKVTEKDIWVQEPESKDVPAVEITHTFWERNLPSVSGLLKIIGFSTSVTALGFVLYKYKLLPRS

[6] = target: T3, Amine oxidase [flavin-containing] B (Homo sapiens, UniProt P27338); experiment: Inhibition of recombinant full length N-terminal FLAG-tagged human MAO-B expressed in baculovirus infected Sf9 insect cells using […] as substrate after 1 hr by spectrometric method
T3 sequence (P27338 whole entry): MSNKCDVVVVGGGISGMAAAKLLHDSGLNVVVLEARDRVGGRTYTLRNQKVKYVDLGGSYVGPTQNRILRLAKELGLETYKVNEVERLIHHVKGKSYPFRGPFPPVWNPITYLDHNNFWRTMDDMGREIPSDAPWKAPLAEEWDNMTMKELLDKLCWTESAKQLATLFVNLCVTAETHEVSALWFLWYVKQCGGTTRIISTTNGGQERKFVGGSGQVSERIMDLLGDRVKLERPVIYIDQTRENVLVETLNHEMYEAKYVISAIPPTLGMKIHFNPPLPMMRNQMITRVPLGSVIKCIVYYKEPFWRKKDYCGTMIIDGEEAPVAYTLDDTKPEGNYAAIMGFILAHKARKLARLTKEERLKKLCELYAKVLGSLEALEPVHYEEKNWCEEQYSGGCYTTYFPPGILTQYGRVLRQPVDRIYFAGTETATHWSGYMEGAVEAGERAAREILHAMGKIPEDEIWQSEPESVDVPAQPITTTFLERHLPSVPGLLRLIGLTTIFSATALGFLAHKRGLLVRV

[7] = species on record: Homo sapiens
[8] = species on record: Homo sapiens; remark: listed apart in the source
[9] = test system: NB-4; experiment: Induction of differentiation of human NB4 cells assessed as increase in CD11b positive cells at 2.5 uM by flow cytometric analysis relative to control; type: functional
[10] = test system: NB-4; experiment: Induction of differentiation of human NB4 cells assessed as increase in CD11b positive cells at 5 uM by flow cytometric analysis relative to control; type: functional
[11] = test system: NB-4; experiment: Induction of differentiation of human NB4 cells assessed as increase in CD11b positive cells at 10 uM by flow cytometric analysis relative to control; type: functional
[12] = target: T1, Lysine-specific histone demethylase 1A; experiment: Inhibition of LSD1 in HEK293 cells assessed as increase in H3K4me2 levels at 2.5 uM after 24 hrs by Western blot method; type: cell-based
[13] = target: T1, Lysine-specific histone demethylase 1A; experiment: Inhibition of LSD1 in HEK293 cells assessed as increase in H3K4me1 levels at 10 uM after 24 hrs by Western blot method; type: cell-based
[14] = test system: NB-4; experiment: Induction of differentiation of human NB4 cells assessed as increase in CD11b positive cells at 1.25 uM by flow cytometric analysis relative to control; type: functional, cell-based
[15] = target: T1, Lysine-specific histone demethylase 1A; remark: listed apart in the source

Cc1ccc(N2C(=O)NC(=O)C(=Cc3cc4ccccc4[nH]3)C2=O)cc1
Activity [1]: Active | IC50 [2]: 1.1 µM

COc1ccc(C=C2C(=O)NC(=O)N(c3ccc(Br)cc3)C2=O)cc1OC
IC50 [2]: 2.8 µM

O=C1NC(=S)N(c2ccc(Br)cc2)C(=O)C1=Cc1ccc(O)c(O)c1
Kd [3]: 1.1 µM | Activity [4]: 98.2% | IC50 [5]: 72.5 µM | IC50 [6]: > 200 µM | Ratio IC50 [7]: 177 | Ratio IC50 [8]: > 487 | Activity [9]: 12.5% | Activity [10]: 36.6% | Activity [11]: 89.7% | inhibition [12]: Active | inhibition [13]: Active | IC50 [2]: 0.41 µM

COc1cc(C=C2C(=O)NC(=O)N(c3ccc(Br)cc3)C2=O)cc(OC)c1O
Activity [9]: Active | Activity [10]: Active | Activity [14]: Active | IC50 [2]: 0.55 µM

CCc1ccc(N2C(=O)NC(=O)/C(=C\c3cc4ccccc4[nH]3)C2=O)cc1
IC50 [2]: 6.42 µM

COc1cc(C=C2C(=O)NC(=O)N(c3ccc(Br)cc3)C2=O)ccc1O
Activity [9]: Active | Activity [10]: Active | Activity [14]: Active | IC50 [2]: 0.87 µM

COc1ccc(C=C2C(=O)NC(=O)N(c3ccc(Br)cc3)C2=O)c(OC)c1OC
IC50 [2]: 3.6 µM

N#Cc1ccc(N2C(=O)NC(=O)C(=Cc3ccc(O)c(O)c3)C2=O)cc1
Activity [1]: Active | IC50 [2]: 1.2 µM

COc1ccc(N2C(=O)NC(=O)C(=Cc3ccc(O)c(O)c3)C2=O)cc1
IC50 [2]: 3.1 µM

O=C1NC(=O)N(c2ccc(Br)cc2)C(=O)C1=Cc1ccc(O)c(O)c1
Ratio IC50 [15]: 12 | Activity [1]: Active | IC50 [2]: 0.3 µM

Cc1ccc(N2C(=O)NC(=O)C(=Cc3cccc(O)c3)C2=O)cc1
IC50 [2]: 23 µM

COc1ccc(C=C2C(=O)NC(=O)N(c3ccc(Br)cc3)C2=O)cc1O
IC50 [2]: 3.6 µM

Cc1ccccc1N1C(=O)NC(=O)C(=Cc2cc3ccccc3[nH]2)C1=O
IC50 [2]: 4.4 µM

CN1CCN(C(=O)CN[C@H]2C[C@@H]2c2ccc(OCc3ccccc3)cc2)CC1
Activity [1]: Active

COc1ccc(N2C(=O)NC(=O)/C(=C\c3ccc(N4CCOCC4)c(F)c3)C2=O)cc1
IC50 [2]: 18.2 µM

COc1ccc(CC2C(=O)NC(=O)N(c3ccc(Br)cc3)C2=O)cc1OC (configuration not stated)
IC50 [2]: > 75 µM
